Data as given in patent US8680269B2, “Pesticidal compositions” (Dow AgroSciences, LLC., priority 2009, dated 2014).

Columns and labels:
Assay type in all cases: in vivo
[1] = test system: corn earworm (CEW; Helicoverpa zea); experiment: Insecticidal test for corn earworm, 128-well diet tray assay; details: 144 h, 50 μg/cm2 on artificial diet, second instar larvae, six days at 25° C.
Outline: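 Second-instar H. zea larvae, three to five per well, on artificial diet surface-treated with 50 μg/cm^2 compound (90:10 acetone-water, dried), eight wells per compound. Held 6 days at 25° C, 14:10 light-dark; percent mortality averaged over wells.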

[2] = test system: beet armyworm (BAW; Spodoptera exigua); experiment: Insecticidal test for beet armyworm, 128-well diet tray assay; details: 144 h, 50 μg/cm2 on artificial diet, second instar larvae, six days at 25° C.
Outline: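 Second-instar larvae, three to five per well, fed on artificial diet surface-treated with 50 μg/cm^2 compound (applied in 90:10 acetone-water, dried). Held 6 days at 25 °C, 14:10 light-dark; percent mortality scored per well and averaged over eight wells.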

[3] = test system: green peach aphid (Myzus persicae); experiment: Insecticidal test for green peach aphid in foliar spray assay; details: 72 h, 200 ppm foliar spray on cabbage seedlings, graded after three days, Abbott corrected % control, read-out: Mortality GPA 200 ppm
Protocol: Cabbage seedlings grown in 3-inch pots, with 2-3 small (3-5 cm) true leaves, were used as test substrate. The seedlings were infested with 20-50 green peach aphids (wingless adult and nymph) one day prior to chemical application. Four pots with individual seedlings were used for each treatment. Compounds (2 mg) were dissolved in 2 mL of acetone/methanol (1:1) solvent, forming stock solutions of 1000 ppm. The stock solutions were diluted 5× with 0.025% Tween 20 in H2O to obtain the test solution at 200 ppm. A hand-held Devilbiss sprayer was used for spraying a solution to both sides of cabbage leaves until runoff. Reference plants (solvent check) were sprayed with the diluent only. Treated plants were held in a holding room for three days at approximately 25° C. and 40% relative humidity (RH) prior to grading. Evaluation was conducted by counting the number of live aphids per plant under a microscope. Insecticidal activity data, measured by using Abbott's correction formula, are presented in Table 2: Corrected % Control=100*(X−Y)/X • where X=No. of live aphids on solvent check plants • Y=No. of live aphids on treated plants

| Compound | mortality at 50 µg/cm2 [1] [%] | mortality at 50 µg/cm2 [2] [%] | mortality at 200 ppm [3] [%] |
| --- | --- | --- | --- |
| FC(F)(F)Oc1ccc(-n2cnc(-c3ccc(/C=N/NC(=S)Nc4ccc(Cl)cc4)cc3)n2)cc1 [Compound 56] | 50 to 100 | 50 to 100 | < 80 |
| CN(C)c1cccc(CNC(=S)N/N=C/c2ccc(-c3ncn(-c4ccc(OC(F)(F)F)cc4)n3)cc2)c1 [Compound 38] | 50 to 100 | 50 to 100 | < 80 |
| FC(F)(F)Oc1ccc(-n2cnc(-c3ccc(/C=N/NC(=S)NC4CC4)cc3)n2)cc1 [Compound 23] | 50 to 100 | 50 to 100 | < 80 |
| Fc1cccc(F)c1NC(=S)N/N=C/c1ccc(-c2ncn(-c3ccc(OC(F)(F)F)cc3)n2)cc1 [Compound 47] | 50 to 100 | 50 to 100 | < 80 |
| COc1ccc(NC(=S)N/N=C/c2ccc(-n3cnc(-c4ccc(C(F)(F)F)cc4)c3)cc2)cc1 [Compound 69] | 50 to 100 | 50 to 100 | < 80 |
| COc1cc(C)c(NC(=S)N/N=C/c2ccc(-c3ncn(-c4ccc(OC(F)(F)C(F)(F)F)cc4)n3)cc2)c(C)c1 [Compound 128] | 50 to 100 | 50 to 100 | < 80 |
| CC(=O)Nc1ccc(NC(=S)N/N=C/c2ccc(-c3ncn(-c4ccc(OC(F)(F)F)cc4)n3)cc2)cc1 [Compound 41] | 50 to 100 | 50 to 100 | < 80 |
| CN(C)c1ccc(CNC(=S)N/N=C/c2ccc(-c3ncn(-c4ccc(OC(F)(F)F)cc4)n3)cc2)cc1 [Compound 37] | 50 to 100 | 50 to 100 | < 80 |
| FC(F)(F)Oc1ccc(-n2cnc(-c3ccc(/C=N/NC(=S)NCc4ccc(Cl)cc4)cc3)n2)cc1 [Compound 34] | 50 to 100 | 50 to 100 | < 80 |
| CN(C)C(=S)N/N=C/c1ccc(-c2ncn(-c3ccc(C(F)(F)F)cc3)n2)cc1 [Compound 8] | 50 to 100 | 50 to 100 | < 80 |
| COc1cccc(OC)c1NC(=S)N/N=C/c1ccc(-c2ncn(-c3ccc(OC(F)(F)F)cc3)n2)cc1 [Compound 57] | 50 to 100 | 50 to 100 | < 80 |
| CC(=O)c1ccc(NC(=S)N/N=C/c2ccc(-c3ncn(-c4ccc(OC(F)(F)F)cc4)n3)cc2)cc1 [Compound 33] | 50 to 100 | 50 to 100 | < 80 |
| CN(C)c1ccc(NC(=S)N/N=C/c2ccc(-c3ncn(-c4ccc(OC(F)(F)F)cc4)n3)cc2)c(C(F)(F)F)c1 [Compound 49] | 50 to 100 | 50 to 100 | < 80 |
| CNC(=S)N/N=C/c1ccc(-c2ncn(-c3ccc(C(F)(F)F)cc3)n2)cc1 [Compound 15] | 50 to 100 | 50 to 100 | < 80 |
| COc1ccc(NC(=O)N/N=C/c2ccc(-c3ncn(-c4ccc(OC(F)(F)F)cc4)n3)cc2)c(C)c1 [Compound 119] | 50 to 100 | 50 to 100 | < 80 |
| FC(F)(F)Oc1ccc(-n2cnc(-c3ccc(/C=N/NC(=S)Nc4ccc(Cl)cc4Cl)cc3)n2)cc1 [Compound 55] | < 50 | < 50 | < 80 |
| O=C(NC(=S)N/N=C/c1ccc(-c2ncn(-c3ccc(OC(F)(F)F)cc3)n2)cc1)c1ccc([N+](=O)[O-])cc1 [Compound 31] | < 50 | < 50 | < 80 |

| Compound | mortality at 50 µg/cm2 [1] [%] | mortality at 50 µg/cm2 [2] [%] | mortality at 200 ppm [3] [%] |
| --- | --- | --- | --- |
| CN(C)C(=S)N/N=C/c1ccc(-c2ncn(-c3ccc(OC(F)(F)F)cc3)n2)cc1 [Compound 11] | 50 to 100 | 50 to 100 | < 80 |
| COc1ccc(NC(=S)N/N=C/c2ccc(-c3ncn(-c4ccc(OC(F)(F)F)cc4)n3)cc2)c(OC)c1 [Compound 45] | 50 to 100 | 50 to 100 | < 80 |
| COc1ccc(NC(=S)N/N=C/c2ccc(-c3ncn(-c4ccc(OC(F)(F)F)cc4)n3)cc2)c(C)c1 [Compound 46] | 50 to 100 | 50 to 100 | < 80 |
| COc1ccc(NC(=S)N/N=C/c2ccc(-c3ncn(-c4ccc(OC(F)(F)F)cc4)n3)cc2)c(C(F)(F)F)c1 [Compound 51] | 50 to 100 | 50 to 100 | < 80 |
| COc1ccc(NC(=S)N/N=C/c2ccc(-c3cn(-c4ccc(OC(F)(F)F)cc4)cn3)cc2)cc1 [Compound 67] | 50 to 100 | 50 to 100 | < 80 |
| COc1ccc(NC(=S)N/N=C/c2ccc(-c3ncn(-c4ccc(OC(F)(F)F)cc4)n3)cc2)cc1 [Compound 28] | 50 to 100 | 50 to 100 | < 80 |
| Nc1ccc(NC(=S)N/N=C/c2ccc(-c3ncn(-c4ccc(OC(F)(F)F)cc4)n3)cc2)cc1 [Compound 81] | 50 to 100 | 50 to 100 | < 80 |
| Cc1cccc(Cl)c1NC(=S)N/N=C/c1ccc(-c2ncn(-c3ccc(OC(F)(F)F)cc3)n2)cc1 [Compound 65] | 50 to 100 | 50 to 100 | < 80 |
| Fc1ccccc1CNC(=S)N/N=C/c1ccc(-c2ncn(-c3ccc(OC(F)(F)F)cc3)n2)cc1 [Compound 22] | 50 to 100 | 50 to 100 | < 80 |
| FC(F)(F)Oc1ccc(-n2cnc(-c3ccc(/C=N/NC(=S)Nc4c(Cl)cccc4Cl)cc3)c2)cc1 [Compound 68] | 50 to 100 | 50 to 100 | < 80 |
| FC(F)(F)Oc1ccc(NC(=S)N/N=C/c2ccc(-c3ncn(-c4ccc(OC(F)(F)F)cc4)n3)cc2)cc1 [Compound 26] | 50 to 100 | 50 to 100 | < 80 |
| CN(C)CCCNC(=S)N/N=C/c1ccc(-c2ncn(-c3ccc(OC(F)(F)F)cc3)n2)cc1 [Compound 19] | < 50 | < 50 | < 80 |
| FC(F)(F)Oc1ccc(-n2cnc(-c3ccc(/C=N/NC(=S)NCCN4CCOCC4)cc3)n2)cc1 [Compound 16] | 50 to 100 | 50 to 100 | < 80 |
| Fc1c(F)c(F)c(NC(=S)N/N=C/c2ccc(-c3ncn(-c4ccc(OC(F)(F)F)cc4)n3)cc2)c(F)c1F [Compound 64] | 50 to 100 | 50 to 100 | < 80 |
| Fc1cccc(Cl)c1NC(=S)N/N=C/c1ccc(-c2ncn(-c3ccc(OC(F)(F)F)cc3)n2)cc1 [Compound 63] | 50 to 100 | 50 to 100 | < 80 |
| COc1cccc(C)c1NC(=S)N/N=C/c1ccc(-c2ncn(-c3ccc(OC(F)(F)F)cc3)n2)cc1 [Compound 73] | 50 to 100 | 50 to 100 | < 80 |
| CN(C)c1ncc(NC(=S)N/N=C/c2ccc(-c3ncn(-c4ccc(OC(F)(F)F)cc4)n3)cc2)cn1 [Compound 43] | 50 to 100 | 50 to 100 | < 80 |
